According to patent US4746678A, “Phenanthrene derivatives” (EGIS Gyoryszergyar, priority 1985, dated 1988):

Legend:
[1] = test system: bean rust (Uromyces apperdiculatus); assay: in vivo test on "pinto" bean against bean rust; set-up: species or system "pinto" bean (host plant); conditions: spray at a concentration of 500 ppm; symptoms 7-8 days after infection
Description: A further test is carried out on "pinto" bean species against bean rust (Uromyces apperdiculatus). Into each cultivating dish three seeds are sown in a 1:1:0.035 mixture of sand, perlite and super compost. Two-leave staged bean plants subjected to 7-9 days' glass house pre-cultivation are treated with the test compound and the treated plants are inoculated. The concentration of the spore suspension amounts to 0.1 g/10 ml and 2.5 ml of spore suspension are used for each cultivating dish. After inoculation the plants are incubated at 20° C. under a relative moisture content of 100% for 48 hours. The symptoms manifest themselves 7-8 days after infection. Three replicates are used; untreated control treatment is also carried out and the commercial product "Dithane M 45" serves as reference.

[2] = test system: wheat powdery mildew; assay: in vivo test against wheat powdery mildew; set-up: species or system "MV-4" wheat (host plant); conditions: identical test conditions
Description: In vivo tests are carried out against cereals powdery mildew.
In vivo activity is tested against wheat powdery mildew in a phytobox of the Conviron type, at 20° C., a relative humidity of 90% and a light intensity of 9000 lux. As host plant the elite propagating seed grain material of officially qualified "MV-4" wheat species is used. Wheat plants are cultivated in 6 days' periods, in cultivating dishes (diameter 11 cm) containing a 1:1 mixture of sand and perlite. Each dish contains 160 plants; at the beginning of the treatment the plants were 5-6 cm high. High dispersity grade aqueous suspensions or acetonic solutions of the test compound are prepared and 8 ml of each suspension or solution, respectively, are applied onto the plants by means of a spraying apparatus operated by gaseous nitrogen. Inoculation is carried out 24 days after the fungicidal treatment. The test units are placed in three replicates and in random block arrangement in the phytotron. The rate of infectedness is determined on the 8th day after inoculation. Numerical evaluation is accomplished on the basis of the method described by Hinfner and Papp by observing separately 50-60 plants.
The results are expressed as ED50 and ED90 values of the test compounds being calculated from the co-relation of effect and concentration by means of mathematical-biometrical methods. […]

CCCCNC(=O)ON=C1C(=O)c2ccccc2-c2ccccc21 [Example 7, 9,10-phenanthrene-dione-9-(n-butyl-aminocarbonyl)-oxime]
inhibition of bean rust infection [1]: 100%

CNC(=O)ON=C1C(=O)c2ccccc2-c2ccccc21 [Example 8, 9,10-Phenanthrene-dione-9-(methylaminocarbonyl)-oxime]
inhibition of bean rust infection [1]: 100%

CCCCNC(=O)n1c(NC(=O)OC)nc2ccccc21 [Reference compound, methyl-1-(n-butylcarbamoyl)-2-benzimidazole-carbamate]
activity relative to the most efficient novel compounds (products of Examples 7 and 8) [2]: lower activity

C/C=C/C(=O)Oc1c(C(C)CCCCCC)cc([N+](=O)[O-])cc1[N+](=O)[O-] (stereo not shown) [6-(1-methyl-heptyl-2,4-dinitro-phenyl-crotonate)]
activity relative to the most efficient novel compounds (products of Examples 7 and 8) [2]: lower activity
